Experimental data as given in ChEMBL document CHEMBL6109050, “Synthesis of novel pyrrolobenzodiazepine (PBD) C1-substituted monomers and dimers with DNA-binding activity and cytotoxicity” (Bioorg Med Chem Lett, 2025).

System: MDA-MB-231
Assay: Cytotoxicity against human MDA-MB-231 cells incubated for 72 hrs by MTT assay
Assay type: functional, cell-based
Details: MDA-MB-231, 72 h

## COc1cc2c(cc1OC)C(=O)N1CC[C@H](OCCCO[C@H]3CCN4C(=O)c5cc(OC)c(OC)cc5N=C[C@H]34)[C@H]1C=N2
  IC50: 236 nM

## COC(=O)c1cc(-c2ccc(NC(=O)c3nc(NC(=O)CO[C@H]4CCN5C(=O)c6cc(OC)c(OC)cc6N=C[C@H]45)cn3C)cc2)cn1C
  IC50: 36 nM
